Patent US12559506B2, “Indazole based compounds and associated methods of use” (Arvinas Operations, Inc., priority 2021, dated 2026)

How the values were obtained:
G2019S LRRK2 = target: T1, G2019S LRRK2 (Homo sapiens, UniProt Q5S007, G2019S); test: LRRK2 degradation assay, HiBit-tagged G2019S LRRK2 expressed from plasmid in HEK293 cells (Nano-Glo Dual-Luciferase); assay type: cell-based; conditions: HiBit-tagged G2019S LRRK2 in HEK293 cells, 24 hours
T1 construct: expressed in transfected cells; host or cells: HEK293 (ATCC CRL-1573), transient transfection, mammalian expression vector with ubiquitin promoter
Excerpt: (§1) Exemplary Assay for Testing LRRK2 Degradation Driven by Exemplary Hetero-Bifunctional Compounds Designed to Target LRRK2
(§2) The assay measures the degradation of wildtype and G2019S LRRK2 tagged with a HiBit tag on the C-terminus of the protein that was expressed from a mammalian expression vector, driven by the ubiquitin promoter in HEK293 cells. Each compound dose-response was repeated on two separate days, on three separate plates each day.
(§3) Plasmid Preparation. Transfection mixes were assembled as follows and incubated for 30 minutes at room temperature. In a 15 mL tube, 5.25 mL Opti-MEM (no additions) was mixed with 17 μL Firefly Luciferase plasmid at 1 μg/μL and 158 μL WT plasmid DNA at 1 μg/μL (175 μg total DNA) were mixed by flicking. In a new 15 mL tube, 5.25 mL OptiMEM was mixed with 17 μL Firefly Luciferase plasmid at 1 μg/μL and 158 μL G2019S plasmid DNA at 1 μg/μL (175 μg total DNA) were mixed by flicking. X-tremeGene HP was mixed thoroughly using a vortex. Next, 175 μL was added to each tube and flicked to mix. Both tubes were left to incubate for 30 minutes at room temperature.
(§4) While the transfection mixes were incubating, HEK293 cells (acquired from ATCC; ATCC CRL-1573) were harvested with trypsin. Once cells are detached, the cells were resuspended in 12 mL OptiMEM+5% FBS and transferred to a 50 mL tube. The cells were mixed well and counted. Using OptiMEM+5% FBS, the cells were diluted in two 250 mL conical tubes at 0.71×10^6 cells/mL in 70 mL. One tube was labeled “WT” and the other “G2019S”. The WT and G2019S transfection mixes were added dropwise to the corresponding 250 mL tubes. The tubes were mixed first by pipetting then by swirling. The tubes were incubated at room temperature for at least 5 minutes.
(§5) Each tube was swirled before dispensing and after every three plates. Seventy microliters of cells were dispensed with WT or G2019S DNA to seven plates each. Three plates of each were tested with compound plate one (preparation described below) and three plates of each were tested with compound plate two (preparation described below). The first plate from each set served as a “prime” plate and was not used to test compounds. Each plate was incubated in the hood for 10 minutes before placing in the 37° C. incubator for 24 hours.
(§6) Preparation of Compound and Assay Plates. Two compound plates were made using 96 well polypropylene plates. Compounds were made up at 10 mM and were diluted to 1 mM in 30 μL. Each dose response curve included a well of DMSO, as a negative control and for normalization, and a well of 0.5 μM of Compound 4 as a positive control. In addition to seven test compounds, each plate also included a dose response of Compound 4. The compound plates were spun down along at 1200 rpm for 2 minutes.
(§7) The two compound plates were then mixed and 2 μL was diluted in intermediate plates having 248 μL of Opti-Mem in each well. Next, 10 μL diluted compounds from the intermediate plates were added to each test plate (three WT and three G2019S plates per compound plate for a total of 12 assay plates). The plates were incubated for 24 hours at 37° C.
(§8) All assay plates and all Nano-Glo Dual-Luciferase Reporter Assay System components (except for the DLR substrate) were equilibrated to room temperature. Next, the luciferase buffer was mixed with the lyophilized amber bottle until fully dissolved, and 75 μL of the luciferase mixture was added to each well of each assay plate. The assay plates were incubated for 10 minutes at room temperature with shaking for at least 5 minutes, and then read on a plate reader.
(§9) Developing Plates and Analyzing Data. One milliliter of DLR substrate and 1 mL LgBiT Protein were added to the Stop and Glo buffer, and 75 μL of the mixture was added to each well of each plate. Optically clear seals were added to each plate and each plate was incubated for 20 minutes with shaking for at least 10 minutes, and then read on a plate reader. […]

wildtype LRRK2 = target: T2, wildtype LRRK2 (Homo sapiens, UniProt Q5S007); test: LRRK2 degradation assay, HiBit-tagged wildtype LRRK2 expressed from plasmid in HEK293 cells (Nano-Glo Dual-Luciferase); assay type: cell-based; conditions: HiBit-tagged wildtype LRRK2 in HEK293 cells, 24 hours; for Dmax: read-out: **WT Dmax (%); for DC50: read-out: *WT DC50
T2 construct: expressed in transfected cells; host or cells: HEK293 (ATCC CRL-1573), transient transfection, mammalian expression vector with ubiquitin promoter
Excerpt: as §1, §2, §3, §4, §5, §6, §7, §8, §9

T2 sequence (Q5S007 whole entry): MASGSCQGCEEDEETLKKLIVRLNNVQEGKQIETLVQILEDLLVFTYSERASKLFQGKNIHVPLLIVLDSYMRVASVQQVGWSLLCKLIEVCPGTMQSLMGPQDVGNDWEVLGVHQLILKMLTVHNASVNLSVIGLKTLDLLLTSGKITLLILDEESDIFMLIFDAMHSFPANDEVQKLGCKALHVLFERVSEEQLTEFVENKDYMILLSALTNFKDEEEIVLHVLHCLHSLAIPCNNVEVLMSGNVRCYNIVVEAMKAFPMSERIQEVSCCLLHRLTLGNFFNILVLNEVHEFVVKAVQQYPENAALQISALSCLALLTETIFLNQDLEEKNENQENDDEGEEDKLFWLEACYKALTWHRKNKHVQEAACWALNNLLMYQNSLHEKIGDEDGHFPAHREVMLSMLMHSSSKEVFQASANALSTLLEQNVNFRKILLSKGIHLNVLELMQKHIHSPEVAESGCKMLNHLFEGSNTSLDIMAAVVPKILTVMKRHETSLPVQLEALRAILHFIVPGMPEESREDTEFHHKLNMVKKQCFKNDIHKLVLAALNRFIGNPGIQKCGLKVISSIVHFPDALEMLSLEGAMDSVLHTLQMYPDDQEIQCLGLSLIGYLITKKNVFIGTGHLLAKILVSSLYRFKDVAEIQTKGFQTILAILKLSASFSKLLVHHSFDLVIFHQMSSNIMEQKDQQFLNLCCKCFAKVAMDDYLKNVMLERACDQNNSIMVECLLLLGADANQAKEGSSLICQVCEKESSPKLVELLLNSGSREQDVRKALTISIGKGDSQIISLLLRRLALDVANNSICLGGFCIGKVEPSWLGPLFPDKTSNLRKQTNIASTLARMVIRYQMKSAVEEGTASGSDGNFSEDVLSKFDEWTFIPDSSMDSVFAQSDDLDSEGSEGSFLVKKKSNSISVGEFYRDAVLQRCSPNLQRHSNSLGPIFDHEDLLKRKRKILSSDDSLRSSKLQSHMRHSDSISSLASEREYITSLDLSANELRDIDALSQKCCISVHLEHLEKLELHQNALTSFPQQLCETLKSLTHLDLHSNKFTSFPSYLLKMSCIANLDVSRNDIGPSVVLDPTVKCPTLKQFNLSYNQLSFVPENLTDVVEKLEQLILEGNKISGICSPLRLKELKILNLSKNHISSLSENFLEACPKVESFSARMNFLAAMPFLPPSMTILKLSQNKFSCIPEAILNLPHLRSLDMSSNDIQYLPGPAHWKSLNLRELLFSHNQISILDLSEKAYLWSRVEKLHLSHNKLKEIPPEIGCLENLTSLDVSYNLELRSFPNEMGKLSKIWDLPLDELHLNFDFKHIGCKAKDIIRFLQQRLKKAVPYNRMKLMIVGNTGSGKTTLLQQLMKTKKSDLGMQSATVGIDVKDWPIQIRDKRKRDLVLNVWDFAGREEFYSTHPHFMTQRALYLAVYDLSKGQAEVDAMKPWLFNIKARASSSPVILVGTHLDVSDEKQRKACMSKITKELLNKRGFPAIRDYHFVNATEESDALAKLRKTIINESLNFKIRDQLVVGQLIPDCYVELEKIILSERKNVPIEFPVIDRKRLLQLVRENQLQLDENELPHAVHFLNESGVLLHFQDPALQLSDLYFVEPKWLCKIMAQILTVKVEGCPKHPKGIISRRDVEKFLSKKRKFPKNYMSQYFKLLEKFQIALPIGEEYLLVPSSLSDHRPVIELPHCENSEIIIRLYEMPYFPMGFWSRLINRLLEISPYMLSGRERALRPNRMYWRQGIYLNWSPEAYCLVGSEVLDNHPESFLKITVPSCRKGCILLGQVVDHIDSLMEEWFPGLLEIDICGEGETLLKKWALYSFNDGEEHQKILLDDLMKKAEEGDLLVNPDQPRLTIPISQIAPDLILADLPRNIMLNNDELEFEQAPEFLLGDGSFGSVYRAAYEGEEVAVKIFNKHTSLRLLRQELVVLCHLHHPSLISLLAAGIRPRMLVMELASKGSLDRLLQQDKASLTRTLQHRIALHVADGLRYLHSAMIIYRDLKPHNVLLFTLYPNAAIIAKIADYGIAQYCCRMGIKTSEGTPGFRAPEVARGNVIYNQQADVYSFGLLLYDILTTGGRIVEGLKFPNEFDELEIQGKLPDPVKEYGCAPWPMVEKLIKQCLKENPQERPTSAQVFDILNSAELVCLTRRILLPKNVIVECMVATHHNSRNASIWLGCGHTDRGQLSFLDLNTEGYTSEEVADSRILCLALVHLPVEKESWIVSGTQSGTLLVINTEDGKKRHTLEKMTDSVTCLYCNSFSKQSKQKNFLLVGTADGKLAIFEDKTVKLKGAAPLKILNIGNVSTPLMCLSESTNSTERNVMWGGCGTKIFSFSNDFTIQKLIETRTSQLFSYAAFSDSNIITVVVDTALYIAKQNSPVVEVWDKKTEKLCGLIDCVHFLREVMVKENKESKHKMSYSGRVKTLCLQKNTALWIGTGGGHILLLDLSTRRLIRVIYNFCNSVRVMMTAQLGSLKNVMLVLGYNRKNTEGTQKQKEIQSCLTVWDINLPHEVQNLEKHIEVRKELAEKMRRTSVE
T1 sequence (Q5S007 whole entry G2019S): as the sequence (Q5S007 whole entry) above, with G2019S counted along it

SMILES | DC50 (G2019S LRRK2) | Dmax (G2019S LRRK2) | Dmax (wildtype LRRK2) | DC50 (wildtype LRRK2)
CC1(Oc2ccc3n[nH]c(-c4cc(N5CCN(C(=O)C6CCN(CC7CCN(c8ccc9c(c8)C(=O)N(C8CCC(=O)NC8=O)C9=O)CC7)CC6)CC5)ncn4)c3c2)CC1 (stereo not drawn) [Compound 84, 2-(2,6-dioxo-3-piperidyl)-5-[4-[[4-[4-[6-[5-(1-methylcyclopropoxy)-2H-indazol-3-yl]pyrimidin-4-yl]piperazine-1-carbonyl]-1-piperidyl]methyl]-1-piperidyl]isoindoline-1,3-dione] | < 0.01 µM | < 50% | 50 to 70% | < 0.01 µM
CC1(Oc2ccc3n[nH]c(-c4ccnc(N5CCN(C(=O)C6CCN(CC7CCN(c8ccc9c(c8)C(=O)N(C8CCC(=O)NC8=O)C9=O)CC7)CC6)CC5)c4)c3c2)CC1 (stereo not drawn) [Compound 85, 2-(2,6-dioxo-3-piperidyl)-5-[4-[[4-[4-[4-[5-(1-methylcyclopropoxy)-2H-indazol-3-yl]-2-pyridyl]piperazine-1-carbonyl]-1-piperidyl]methyl]-1-piperidyl]isoindoline-1,3-dione] | < 0.01 µM | < 50% | < 50% | < 0.01 µM
CC1(Oc2ccc3[nH]nc(-c4cc(N5CCC(C(=O)N6CCC(CN7CCN(c8ccc9c(c8)C(=O)N(C8CCC(=O)NC8=O)C9=O)CC7)CC6)CC5)ncn4)c3c2)CC1 (stereo not drawn) [Compound 86, 2-(2,6-dioxopiperidin-3-yl)-5-(4-{[1-(1-{6-[5-(1-methylcyclopropoxy)-1H-indazol-3-yl]pyrimidin-4-yl}piperidine-4-carbonyl)piperidin-4-yl]methyl}piperazin-1-yl)-2,3-dihydro-1H-isoindole-1,3-dione] | < 0.01 µM | 50 to 70% | 50 to 70% | < 0.01 µM
CC1(Oc2ccc3[nH]nc(-c4ccnc(N5CCC(C(=O)N6CCC(CN7CCN(c8ccc9c(c8)C(=O)N(C8CCC(=O)NC8=O)C9=O)CC7)CC6)CC5)c4)c3c2)CC1 (stereo not drawn) [Compound 87, 2-(2,6-dioxo-3-piperidyl)-5-[4-[[1-[1-[4-[5-(1-methylcyclopropoxy)-1H-indazol-3-yl]-2-pyridyl]piperidine-4-carbonyl]-4-piperidyl]methyl]piperazin-1-yl]isoindoline-1,3-dione] | < 0.01 µM | < 50% | < 50% | < 0.01 µM
CC1(Oc2ccc3[nH]nc(-c4cc(N5CCC(C(=O)N6CCC(CC7CCN(c8ccc9c(c8)C(=O)N(C8CCC(=O)NC8=O)C9=O)CC7)CC6)CC5)ncn4)c3c2)CC1 (stereo not drawn) [Compound 88, 2-(2,6-dioxo-3-piperidyl)-5-[4-[[1-[1-[6-[5-(1-methylcyclopropoxy)-1H-indazol-3-yl]pyrimidin-4-yl]piperidine-4-carbonyl]-4-piperidyl]methyl]-1-piperidyl]isoindoline-1,3-dione] | 0.01 to 0.05 µM | 50 to 70% | < 50% | 0.01 to 0.05 µM
CC1(Oc2ccc3[nH]nc(-c4ccnc(N5CCC(C(=O)N6CCC(CC7CCN(c8ccc9c(c8)C(=O)N(C8CCC(=O)NC8=O)C9=O)CC7)CC6)CC5)c4)c3c2)CC1 (stereo not drawn) [Compound 89, 2-(2,6-dioxopiperidin-3-yl)-5-(4-{[1-(1-{4-[5-(1-methylcyclopropoxy)-1H-indazol-3-yl]pyridin-2-yl}piperidine-4-carbonyl)piperidin-4-yl]methyl}piperidin-1-yl)-2,3-dihydro-1H-isoindole-1,3-dione] | 0.01 to 0.05 µM | < 50% | < 50% | 0.01 to 0.05 µM
CC1(Oc2ccc3[nH]nc(-c4cc(N5CCN(CC6CCN(C(=O)C7CCN(c8ccc9c(c8)C(=O)N(C8CCC(=O)NC8=O)C9=O)CC7)CC6)CC5)ncn4)c3c2)CC1 (stereo not drawn) [Compound 90, 2-(2,6-dioxopiperidin-3-yl)-5-(4-{4-[(4-{6-[5-(1-methylcyclopropoxy)-1H-indazol-3-yl]pyrimidin-4-yl}piperazin-1-yl)methyl]piperidine-1-carbonyl}piperidin-1-yl)-2,3-dihydro-1H-isoindole-1,3-dione] | < 0.01 µM | 50 to 70% | < 50% | < 0.01 µM
CC1(Oc2ccc3[nH]nc(-c4ccnc(N5CCN(CC6CCN(C(=O)C7CCN(c8ccc9c(c8)C(=O)N(C8CCC(=O)NC8=O)C9=O)CC7)CC6)CC5)c4)c3c2)CC1 (stereo not drawn) [Compound 91, 2-(2,6-dioxopiperidin-3-yl)-5-(4-{4-[(4-{4-[5-(1-methylcyclopropoxy)-1H-indazol-3-yl]pyridin-2-yl}piperazin-1-yl)methyl]piperidine-1-carbonyl}piperidin-1-yl)-2,3-dihydro-1H-isoindole-1,3-dione] | < 0.01 µM | 50 to 70% | 50 to 70% | < 0.01 µM
CC1(Oc2ccc3[nH]nc(-c4cc(N5CCC(CC6CCN(C(=O)C7CCN(c8ccc9c(c8)C(=O)N(C8CCC(=O)NC8=O)C9=O)CC7)CC6)CC5)ncn4)c3c2)CC1 (stereo not drawn) [Compound 92, 2-(2,6-dioxo-3-piperidyl)-5-[4-[4-[[1-[6-[5-(1-methylcyclopropoxy)-1H-indazol-3-yl]pyrimidin-4-yl]-4-piperidyl]methyl]piperidine-1-carbonyl]-1-piperidyl]isoindoline-1,3-dione] | 0.01 to 0.05 µM | 50 to 70% | 50 to 70% | < 0.01 µM
CC1(Oc2ccc3[nH]nc(-c4ccnc(N5CCC(CC6CCN(C(=O)C7CCN(c8ccc9c(c8)C(=O)N(C8CCC(=O)NC8=O)C9=O)CC7)CC6)CC5)c4)c3c2)CC1 (stereo not drawn) [Compound 93, 2-(2,6-dioxopiperidin-3-yl)-5-(4-{4-[(1-{4-[5-(1-methylcyclopropoxy)-1H-indazol-3-yl]pyridin-2-yl}piperidin-4-yl)methyl]piperidine-1-carbonyl}piperidin-1-yl)-2,3-dihydro-1H-isoindole-1,3-dione] | 0.01 to 0.05 µM | < 50% | 50 to 70% | 0.01 to 0.05 µM
CC1(Oc2ccc3[nH]nc(-c4cc(N5CCC(CN6CCN(C(=O)C7CCN(c8ccc9c(c8)C(=O)N(C8CCC(=O)NC8=O)C9=O)CC7)CC6)CC5)ncn4)c3c2)CC1 (stereo not drawn) [Compound 94, 2-(2,6-dioxopiperidin-3-yl)-5-(4-{4-[(1-{6-[5-(1-methylcyclopropoxy)-1H-indazol-3-yl]pyrimidin-4-yl}piperidin-4-yl)methyl]piperazine-1-carbonyl}piperidin-1-yl)-2,3-dihydro-1H-isoindole-1,3-dione] | < 0.01 µM | 50 to 70% | 50 to 70% | < 0.01 µM
CC1(Oc2ccc3[nH]nc(-c4ccnc(N5CCC(CN6CCN(C(=O)C7CCN(c8ccc9c(c8)C(=O)N(C8CCC(=O)NC8=O)C9=O)CC7)CC6)CC5)c4)c3c2)CC1 (stereo not drawn) [Compound 95, 2-(2,6-dioxopiperidin-3-yl)-5-(4-{4-[(1-{4-[5-(1-methylcyclopropoxy)-1H-indazol-3-yl]pyridin-2-yl}piperidin-4-yl)methyl]piperazine-1-carbonyl}piperidin-1-yl)-2,3-dihydro-1H-isoindole-1,3-dione] | < 0.01 µM | 50 to 70% | 50 to 70% | < 0.01 µM
